Results on 13 molecules are retold here after EP0195147A1, “Trihalo(amine)gold(III) complexes” (ENGELHARD CORPORATION, priority 1985, dated 1986).

Data set [1] has as its system implanted Sarcoma 180 tumors. Particulars: value attributed to commercially available Cisplatin; cited from earlier work.
Another data set deals with S 180 ascites. The experiment in a line: Anti-tumor screening against S 180 ascites (% increase in life span). Type of data set: in vivo, female CFW Swiss mice. Conditions: for Survivors: survivors on day of evaluation (twice the mean life span of the control). How it is done: The above prepared compounds were evaluated against §180 ascites in female CFW Swiss mice. The mice were weighed (average weight: 20 g), placed into cages (six mice to a cage) and on day zero the mice were inoculated with 0.2 ml of a freshly prepared saline suspension (0.15 M NaCl) containing 1 x 10^7 tumor cells/ml or a total of 2 x 10^6 cells. This inoculum was freshly prepared using "transfer" mice which had been injected with tumor cells the previous week; it was obtained via the following steps: (1) the removal of cells from the peritoneal cavity of the sacrificed transfer mouse, (2) alternate centrifugation and washing operations (2-3 times with cold saline) to remove blood and other components, and (3) dilution of the volume of the packed cell with saline (1:3). A final centrifugation was carried out at 1000 RPM over a two minute period. A cell count was made on a 2,000-fold dilution of this 1:3 suspension by means of a Coulter Counter. A final dilution to […] cells/ml was made based on the average count.
On day 1, solutions of the test compounds were prepared and each mouse in a set of six were injected with the same test compound at the same dosage. The doses were based on the average weight of the animals (cage weight). Also, beginning on day 1 two controls were employed containing six mice per control; • (1) Normal Control: This consisted solely of the carrier or diluent used in combination with the test compound; and • (2) Positive Control: This consisted solely of the known anti-tumor agent cis-[Pt(NH3)2C12] (Cisplatin) in saline (8 mg/kg) to test the response of the
The effectiveness of a test compound was measured in terms of the % increase in life span (%ILS) of the test mice relative to the Normal Control (Calculated from the day of tumor inoculation, ie., day zero). To standardize the test data and permit intercomparisons, the day of evaluation was arbitrarily taken as that day corresponding to twice the mean life span (or average day of death) of the control. This established a practical upper limit of 100% on the %ILS attainable. For calculation purposes the survivors on the day of evaluation were considered to have died on that day. The %ILS was calculated as follows: [formula] ILS values in excess of 50% were interpreted as being indicative of anti-tumor activity, whereas, values in excess of 75% indicated excellent activity.
The products of Examples 1, 4, 10 and 11 were administered in a freshly prepared 1% sodium bicarbonate solution; the remaining test compounds were administered as slurries in 0.5% "Klucel" (hydroxypropylcellulose). All products (I) are insoluble in water.

Data set [2] is described as follows: Therapeutic indices, ED90 and LD50 by the method of Miller and Tainter. The arrangement: species or system Swiss white mice. Particulars: mouse, in vivo; for selectivity ratio: LD50/ED90, read-out: Therapeutic Index; for LD50: lethal dose to 50% of the animals. Here is the method: The therapeutic indices for the present compounds (I), their effective dose (ED90) and lethal dose (LD50) were determined according to the method of Miller and Tainter (Reported by R. A. Turner, "Screening Methods in Pharmacology", Academic Press, New York, pages 61-62 (1976)).

A further data set is described as follows: Solubility. Type of data set: physicochemical. Particulars: 1% sodium bicarbonate solution; read-out: soluble in 1% sodium bicarbonate solution to the extent of.

“And” between values parts separate entries of the source, which are not always exact repeats. Equal values may be shown once.

For `N.N.[Cl][Pt][Cl]` [Cisplatin, cis-[Pt(NH3)2C12], reference compound], the “Therapeutic Index” value in data set [1] is recorded as 2.2-2.5. In addition, the “Positive Control Survivors” value with S 180 ascites (Cisplatin in saline, 8 mg/kg, run alongside the example of the same table line, listed as Positive Control) is 0 of 6 and 4 of 6 and 1 of 6 and 6 of 6.

In the case of `O=C(O)c1ccc[n+]([Au-]([Cl])([Cl])[Cl])c1` [Ex. 1, Trichloro(Nicotinic Acid)Gold(III)], the Survivors with S 180 ascites (Dose 10 mg/kg) was 0 of 6; in the data set with S 180 ascites (Dose 20 mg/kg), 3 of 6; in the data set on S 180 ascites (Dose 40 mg/kg), 3 of 6; with S 180 ascites (Dose 80 mg/kg), 4 of 6; with S 180 ascites (Dose 160 mg/kg), 0 of 6; in the data set with S 180 ascites (Dose 320 mg/kg), 0 of 6. For the same molecule, in data set [2], the selectivity ratio was found to be 5.8. For the same molecule, the LD50 (usually the dose at which mortality reaches 50%) in data set [2] stood at 180 mg/kg. Further, the solubility in the data set “Solubility” stood at 12.8 mg/mL.

For the molecule `Cn1cc[n+]([Au-]([Cl])([Cl])[Cl])c1` [Ex. 2, Trichloro(N-Methylimidazole)Gold(III)], the Survivors in the data set on S 180 ascites (Dose 5 mg/kg) was 0 of 6; in the data set on S 180 ascites (Dose 10 mg/kg), 0 of 6; in the data set on S 180 ascites (Dose 20 mg/kg), 1 of 6; with S 180 ascites (Dose 40 mg/kg), 4 of 6; in the data set with S 180 ascites (Dose 80 mg/kg), 1 of 6; in the data set with S 180 ascites (Dose 160 mg/kg), 0 of 6. Moreover, in the data set with S 180 ascites (within the 20-40 mg/kg range), the “anti-tumor activity (in words)” value was “decidedly active”. Moreover, the selectivity ratio in data set [2] turned out to be 2.8. This molecule returned an LD50 in data set [2] of 90 mg/kg.

Turning to `CC(=O)c1ccc[n+]([Au-]([Cl])([Cl])[Cl])c1` [Ex. 3, trichloro(3-acetylpyridine)gold(III)], the Survivors with S 180 ascites (Dose 10 mg/kg) is 0 of 6; in the data set on S 180 ascites (Dose 20 mg/kg), 1 of 6; in the data set on S 180 ascites (Dose 40 mg/kg), 5 of 6; with S 180 ascites (Dose 80 mg/kg), 4 of 6; with S 180 ascites (Dose 160 mg/kg), 0 of 6; in the data set with S 180 ascites (Dose 320 mg/kg), 0 of 6. Besides, the selectivity ratio in data set [2] amounted to 4.5. This molecule gave an LD50 in data set [2] of 140 mg/kg.

With `O=C(O)Cc1ccc[n+]([Au-]([Cl])([Cl])[Cl])c1` [Ex. 4, trichloro-(3-pyridyacetic acid)gold(III)], the Survivors with S 180 ascites (Dose 10 mg/kg) is recorded as 0 of 6; in the data set with S 180 ascites (Dose 20 mg/kg) it was 0 of 6; with S 180 ascites (Dose 40 mg/kg) it was 1 of 6; in the data set on S 180 ascites (Dose 80 mg/kg), 1 of 6; in the data set with S 180 ascites (Dose 160 mg/kg), 0 of 6; with S 180 ascites (Dose 320 mg/kg), 0 of 6. In addition, the selectivity ratio in data set [2] was 1.8. The median lethal dose (LD50) in data set [2] amounted to 150 mg/kg. Also, in “Solubility”, the solubility was found to be 12.8 mg/mL.

As to `Oc1ccc[n+]([Au-]([Cl])([Cl])[Cl])c1` [Ex. 5], the Survivors in the data set with S 180 ascites (Dose 10 mg/kg) is given as 0 of 6; in the data set on S 180 ascites (Dose 20 mg/kg), 2 of 6; with S 180 ascites (Dose 40 mg/kg) it was 3 of 6; with S 180 ascites (Dose 80 mg/kg), 2 of 6; with S 180 ascites (Dose 160 mg/kg), 0 of 6; in the data set on S 180 ascites (Dose 320 mg/kg) it was 0 of 6.

As to `OCc1ccc[n+]([Au-]([Cl])([Cl])[Cl])c1` [Ex. 6], the Survivors is on record as 0 of 6 with S 180 ascites (Dose 10 mg/kg); 1 of 6 in the data set with S 180 ascites (Dose 20 mg/kg); 3 of 6 in the data set with S 180 ascites (Dose 40 mg/kg); 0 of 6 with S 180 ascites (Dose 80 mg/kg); 0 of 6 in the data set with S 180 ascites (Dose 160 mg/kg); 0 of 6 in the data set with S 180 ascites (Dose 320 mg/kg). The selectivity ratio in data set [2] came out at 2.1. This molecule also showed an LD50 in data set [2] of 90 mg/kg.

As for `[Cl][Au-]([Cl])([Cl])[n+]1ccccc1` [Ex. 7, trichloro(pyridine)gold(III)], the Survivors with S 180 ascites (Dose 10 mg/kg) is 3 of 6; in the data set on S 180 ascites (Dose 20 mg/kg), 2 of 6; in the data set on S 180 ascites (Dose 40 mg/kg), 3 of 6; in the data set on S 180 ascites (Dose 80 mg/kg), 2 of 6; in the data set with S 180 ascites (Dose 160 mg/kg) it was 0 of 6; in the data set with S 180 ascites (Dose 320 mg/kg), 0 of 6.

As for `[Cl][Au-]([Cl])([Cl])[n+]1cc[nH]c1` [Ex. 8, trichloro(imidazole)gold(III)], the Survivors is 0 of 6 in the data set with S 180 ascites (Dose 5 mg/kg); 0 of 6 in the data set on S 180 ascites (Dose 10 mg/kg); 1 of 6 with S 180 ascites (Dose 20 mg/kg); 0 of 6 with S 180 ascites (Dose 40 mg/kg); 1 of 6 in the data set with S 180 ascites (Dose 80 mg/kg); 2 of 6 in the data set with S 180 ascites (Dose 160 mg/kg).

As for `Cn1cc[n+]([Au-]([Br])([Br])[Br])c1` [Ex. 9, Tribromo(N-Methylimidazole)Gold(III)], the Survivors is listed as 0 of 6 in the data set with S 180 ascites (Dose 10 mg/kg); 4 of 6 with S 180 ascites (Dose 20 mg/kg); 3 of 6 with S 180 ascites (Dose 40 mg/kg); 1 of 6 in the data set with S 180 ascites (Dose 80 mg/kg); 0 of 6 in the data set on S 180 ascites (Dose 160 mg/kg); 0 of 6 with S 180 ascites (Dose 320 mg/kg). In addition, the selectivity ratio in data set [2] was 2. Further, the LD50 in data set [2] was 85 mg/kg.

With `O=C(O)c1ccc[n+]([Au-]([Br])([Br])[Br])c1` [Ex. 10], the Survivors in the data set with S 180 ascites (Dose 10 mg/kg) is 0 of 6; in the data set with S 180 ascites (Dose 20 mg/kg), 0 of 6; in the data set with S 180 ascites (Dose 40 mg/kg), 2 of 6; in the data set with S 180 ascites (Dose 80 mg/kg) it was 0 of 6; in the data set with S 180 ascites (Dose 160 mg/kg), 0 of 6; in the data set with S 180 ascites (Dose 320 mg/kg) it was 0 of 6. Further, the solubility in “Solubility” was 12.8 mg/mL.

For the molecule `O=C(O)Cc1ccc[n+]([Au-]([Br])([Br])[Br])c1` [Ex. 11, tribromo(3-pyridylacetic acid)gold(III)], the Survivors is 0 of 6 in the data set with S 180 ascites (Dose 10 mg/kg); 0 of 6 with S 180 ascites (Dose 20 mg/kg); 0 of 6 in the data set on S 180 ascites (Dose 40 mg/kg); 1 of 6 in the data set with S 180 ascites (Dose 80 mg/kg); 0 of 6 with S 180 ascites (Dose 160 mg/kg); 0 of 6 in the data set with S 180 ascites (Dose 320 mg/kg). The solubility in “Solubility” is 12.8 mg/mL.

For the molecule `O=C(O)Cc1ccc[n+]([Au-]([Cl])([Cl])[Cl])c1` [trichloro-(3-pyridyacetic acid)gold(III)], the “anti-tumor activity (in words)” value in the data set on S 180 ascites (50% ILS criterion, all doses tested) was “pronounced anti-tumor effect”.
